Experimental data: ChEMBL document CHEMBL4177741, “NOTA analogue: A first dithiocarbamate inhibitor of metallo-β-lactamases” (Bioorg Med Chem Lett, 2018)
Values after ≈ are worked out from the molar mass of the structure shown. Values belong to the compound of their own block, whether it stands above or below them. Active and inactive are the calls of the source. The rule behind the calls is not given here.

Tests used:
[1] = tested on: Citrobacter freundii; assay: Inhibition of NDM1 in Citrobacter freundii clinical isolates assessed as potentiation of meropenem-induced antibacterial activity by measuring meropenem MIC at 32 ug/ml incubated for 16 to 18 hrs by broth microdilution method
[2] = tested on: Proteus mirabilis; assay: (§1) Inhibition of NDM1 in Proteus mirabilis clinical isolates assessed as potentiation of meropenem-induced antibacterial activity by measuring meropenem MIC at 32 ug/ml incubated for 16 to 18 hrs by broth microdilution method
[3] = tested on: Proteus mirabilis; assay: as §1; remark: listed apart in the source
[4] = tested on: Proteus mirabilis; assay: as §1; remark: listed apart in the source
[5] = tested on: Escherichia coli; assay: Effect on cell growth of Escherichia coli expressing NDM1 assessed as cell growth level; format: organism-based
[6] = tested on: Escherichia coli; assay: Effect on cell growth of Escherichia coli expressing NDM1 incubated for 16 to 18 hrs by CLSI protocol based method; format: organism-based
[7] = target: Beta-lactamase NDM-1 (Escherichia coli) (UniProt E5KIY2); assay: Inhibition of NDM1 in Escherichia coli assessed as potentiation of 0.125 ug/ml meropenem-induced antibacterial activity by measuring bacterial count at 32 ug/ml incubated for 3 hrs by time-dependent killing assay (reference value: […])
[8] = target: T1, Beta-lactamase NDM-1 (Escherichia coli, UniProt E5KIY2)
Description: Inhibition of NDM1 in Escherichia coli BL21 (DE3) using MEPM substrate incubated for 15 mins by UV spectroscopy

[9] = target: T1, Beta-lactamase NDM-1; remark: listed apart in the source
Description: Non-competitive inhibition of NDM1 in Escherichia coli BL21 (DE3) using MEPM substrate incubated for 15 mins by UV spectroscopy based L-B plot

[10] = target: Beta-lactamase NDM-1 (Escherichia coli) (UniProt E5KIY2)
[11] = target: Beta-lactamase NDM-1 (Escherichia coli) (UniProt E5KIY2); remark: listed apart in the source
[12] = target: Beta-lactamase NDM-1 (Escherichia coli) (UniProt E5KIY2); remark: listed apart in the source
[13] = target: Metallo-beta-lactamase type 2 (Klebsiella pneumoniae) (UniProt C7C422)
[14] = target: Metallo-beta-lactamase type 2 (Klebsiella pneumoniae) (UniProt C7C422); remark: listed apart in the source
[15] = target: Beta-lactamase NDM-1 (Escherichia coli) (UniProt E5KIY2); remark: listed apart in the source
[16] = tested on: HeLa; assay: Cytotoxicity in human HeLa cells assessed as inhibition of cell growth at 0.1% incubated for 24 hrs by calcein AM and propidium iodide staining based fluorescence microscopy; format: functional
[17] = tested on: Escherichia coli; assay: Potentiation of meropenem-induced antibacterial activity in Escherichia coli expressing NDM1 assessed as meropenem inhibition zone incubated for 16 to 18 hrs by CLSI protocol based disc diffusion method (reference value: 10.76 mm); format: functional
[18] = tested on: Erythrocyte; assay: Hemolytic activity in sheep RBCs at 10000 ug/ml incubated for 1 hr; format: ADME, cell-based, Ovis aries
[19] = tested on: HeLa; assay: Cytotoxicity in human HeLa cells assessed as inhibition of cell growth at 64 ug/ml incubated for 24 hrs by calcein AM and propidium iodide staining based fluorescence microscopy
[20] = tested on: HeLa; assay: Cytotoxicity in human HeLa cells assessed as inhibition of cell growth at 128 ug/ml incubated for 24 hrs by calcein AM and propidium iodide staining based fluorescence microscopy
[21] = Cytotoxicity in human HeLa cells assessed as inhibition of cell growth at 1000 ug/ml incubated for 24 hrs by CCK8 assay; format: cell-based; conditions: read-out: GI
[22] = tested on: Citrobacter freundii; conditions: 64 ug/ml
Description: Inhibition of NDM1 in Citrobacter freundii clinical isolates assessed as potentiation of meropenem-induced antibacterial activity by measuring meropenem MIC at 64 ug/ml incubated for 16 to 18 hrs by broth microdilution method

[23] = tested on: Proteus mirabilis; conditions: 64 ug/ml
Description: (§2) Inhibition of NDM1 in Proteus mirabilis clinical isolates assessed as potentiation of meropenem-induced antibacterial activity by measuring meropenem MIC at 64 ug/ml incubated for 16 to 18 hrs by broth microdilution method

[24] = tested on: Proteus mirabilis; conditions: 64 ug/ml; remark: listed apart in the source
Description: as §2

MIC [1]: 0.06 µg/mL
MIC [2]: 0.5 µg/mL
MIC [3]: 2 µg/mL
MIC [4]: 0.5 µg/mL
IC50 [8]: 110 nM
Ki [9]: 5110 nM
MIC [10]: 0.125 µg/mL (≈ 0.412 µM)
MIC [11]: < 0.03 µg/mL
MIC [12]: 0.125 µg/mL (≈ 0.412 µM)
MIC [13]: 1 µg/mL (≈ 3.3 µM)
MIC [14]: 2 µg/mL (≈ 6.59 µM)
Structure (SMILES): O=C(O)CN1CCN(CC(=O)O)CCN(CC(=O)O)CC1
Activity [5]: 90%
MIC [6]: > 128 µg/mL
Activity [7]: 10000 to 1e+06 CFU/mL

IZ [15]: 21.7 mm
Structure (SMILES): O=C(O)CN(CCN(CC(=O)O)CC(=O)O)CC(=O)O

Structure (SMILES): CC(C)(C)CC(C)(C)c1ccc(OCCOCCOCCOCCOCCOCCOCCO)cc1
Activity [16]: Active

MIC [1]: 4 µg/mL
MIC [2]: 4 µg/mL
MIC [3]: > 16 µg/mL
MIC [22]: 0.5 µg/mL
MIC [23]: > 16 µg/mL
MIC [24]: 4 µg/mL
Structure (SMILES): S=C([S-])N1CCN(C(=S)[S-])CCN(C(=S)[S-])CC1.[Na+].[Na+].[Na+]
inhibition zone (IZ) [17]: 15.9 mm
Activity [5]: 90%
Activity [18]: Non-Toxic
Activity [19]: Non-Toxic
Activity [20]: Non-Toxic
inhibition at 24 h, 1000 ug/ml [21]: 20%
MIC [6]: > 128 µg/mL
